Our source for the GI50 and TGI values is PubChem BioAssay (NCI).

Test systems include ACHN renal; COLO 205 colon; HCC-2998 colon; K-562 leukemia; M14 melanoma; MALME-3M melanoma; MCF7 breast; OVCAR-4 ovarian; SF-268 CNS; UO-31 renal.
Common to all, as to test: DTP human tumour cell line panel, 48 h

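These data come from cells grown in 96-well plates and exposed to compound for 48 hours at five concentrations. Here, GI50 denotes the concentration required for 50% inhibition of growth. TGI is the concentration that stops growth completely.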 Where only a bound is given, the exact number is not on record here.

For `COc1ccc(-c2c3c(nc4n[nH]c(-c5ccc(Cl)cc5)c24)-c2ccccc2C(=O)C3=O)cc1`, the GI50 in the experiment on ACHN renal was 1.46 µM; with COLO 205 colon, 1.57 µM; in the experiment on HCC-2998 colon, 1.73 µM; with K-562 leukemia, 1.58 µM; with M14 melanoma it was 1.71 µM; in the experiment with MALME-3M melanoma, 0.75 µM. Moreover, the GI50 in the experiment with MCF7 breast was 1.46 µM; in the experiment with OVCAR-4 ovarian it was 1.7 µM; in the experiment with SF-268 CNS it was 1.4 µM; in the experiment with UO-31 renal it was 1.17 µM. Also, the TGI with ACHN renal is 3.3 µM; with COLO 205 colon, 2.99 µM; in the experiment with HCC-2998 colon it was 3.19 µM; with K-562 leukemia it was more than 100 µM; in the experiment on M14 melanoma, 3.48 µM; with MALME-3M melanoma, 2.81 µM. Also, the TGI is 5.7 µM with MCF7 breast, 15.9 µM with OVCAR-4 ovarian, 2.99 µM in the experiment with SF-268 CNS and 2.9 µM with UO-31 renal.
Consider `Cc1ccc(C2NC(=O)c3ccccc3N2)c(C)c1` (stereo not given), for which the TGI was more than 100 µM in the experiment with ACHN renal; 14.2 µM with COLO 205 colon; more than 61.1 µM with HCC-2998 colon; 8.37 µM in the experiment on K-562 leukemia; 40 µM with M14 melanoma; more than 69.1 µM in the experiment with MALME-3M melanoma. The total growth inhibition concentration (TGI) in the experiment with MCF7 breast is 8.34 µM; in the experiment with OVCAR-4 ovarian, more than 59.7 µM; in the experiment with SF-268 CNS it was more than 100 µM; with UO-31 renal it was more than 100 µM.
On to `CC(=O)OC1=CC2(OC(C)=O)CC(C)(C)C1C1C(=O)C=CC(=O)C12` (stereo not given), for which the TGI in the experiment on ACHN renal is 45.9 µM; with COLO 205 colon, more than 65.7 µM; in the experiment with HCC-2998 colon it was more than 100 µM; in the experiment on K-562 leukemia, more than 100 µM; with M14 melanoma, more than 100 µM; in the experiment with MALME-3M melanoma it was 38.9 µM. In addition, the TGI in the experiment with MCF7 breast, in the experiment on OVCAR-4 ovarian, in the experiment with SF-268 CNS and with UO-31 renal was more than 100 µM in each case.
Take `CC1=Nc2c([nH]c(=S)[nH]c2=O)NC(c2c(Cl)cccc2Cl)C1` (stereo not given): the TGI was 11 µM in the experiment with ACHN renal; 4.34 µM in the experiment on COLO 205 colon; 22.9 µM with HCC-2998 colon; 2.21 µM in the experiment on K-562 leukemia; 6.47 µM with M14 melanoma; 12.9 µM in the experiment on MALME-3M melanoma. Also, the TGI in the experiment with MCF7 breast stood at 3.12 µM; in the experiment on OVCAR-4 ovarian, 9.09 µM; in the experiment on SF-268 CNS, 3.96 µM; in the experiment on UO-31 renal, 10.2 µM.
Take `COc1cc2oc3c(c(=O)c2c(O)c1/C=C/C(C)C)C(C=C(C)C)Oc1cc(O)ccc1-3` (stereo not given): the TGI turned out to be 29.4 µM in the experiment with ACHN renal; 29.4 µM in the experiment on COLO 205 colon; 25.2 µM with HCC-2998 colon; 24.2 µM in the experiment on K-562 leukemia; 27.3 µM in the experiment with M14 melanoma; 38.9 µM with MALME-3M melanoma. In addition, the TGI in the experiment with MCF7 breast worked out at 28.6 µM; in the experiment on OVCAR-4 ovarian, 31.5 µM; in the experiment on SF-268 CNS, 36.8 µM; in the experiment with UO-31 renal it was 25.2 µM.
Consider `Cc1[nH]c2cc(F)ccc2c1-c1nc2c3cccnc3c3ncccc3c2[nH]1`, for which the GI50 was 0.254 µM in the experiment on ACHN renal; 0.178 µM with COLO 205 colon; 0.117 µM in the experiment with HCC-2998 colon; 0.324 µM with K-562 leukemia; 0.187 µM in the experiment with M14 melanoma; 0.202 µM with MALME-3M melanoma. Also, the GI50 with MCF7 breast was 0.319 µM; with OVCAR-4 ovarian, 0.0438 µM; with SF-268 CNS, 0.21 µM; with UO-31 renal, 0.266 µM. Moreover, the TGI in the experiment on ACHN renal worked out at 1.45 µM; in the experiment with COLO 205 colon it was 1.26 µM; in the experiment on HCC-2998 colon, 1.3 µM; in the experiment on K-562 leukemia, 4.77 µM; with M14 melanoma it was 0.667 µM; in the experiment with MALME-3M melanoma it was 0.769 µM. The TGI with MCF7 breast was 1.65 µM; in the experiment with OVCAR-4 ovarian, 1.23 µM; in the experiment with SF-268 CNS it was 2.2 µM; in the experiment with UO-31 renal, 0.929 µM.
In the case of `CC(C)(C)N/N=C(\C(=O)NC1=C(Cl)C(=O)c2ccccc2C1=O)C1C=CCS1(=O)=O` (stereo not given), the TGI in the experiment on ACHN renal is 55.3 µM; in the experiment on COLO 205 colon, 30.2 µM; with HCC-2998 colon, 57.3 µM; in the experiment on K-562 leukemia, more than 100 µM; in the experiment on M14 melanoma it was 23.7 µM; with MALME-3M melanoma, 6.44 µM. Also, the TGI is 29 µM in the experiment on MCF7 breast, 30.7 µM in the experiment on OVCAR-4 ovarian, more than 100 µM in the experiment with SF-268 CNS and 37.7 µM in the experiment on UO-31 renal.
For `NC(=O)c1sc(-n2cnc3cc(C(F)(F)F)ccc32)cc1OCc1ccccc1Br`, the GI50 was more than 22.4 µM in the experiment with ACHN renal; more than 25 µM in the experiment with COLO 205 colon; more than 25 µM in the experiment with HCC-2998 colon; 24.7 µM in the experiment with K-562 leukemia; more than 25 µM in the experiment with M14 melanoma; more than 16.2 µM in the experiment on MALME-3M melanoma. Also, the GI50 is more than 13.4 µM in the experiment on MCF7 breast, 9.02 µM in the experiment on OVCAR-4 ovarian, more than 17.5 µM in the experiment with SF-268 CNS and more than 25 µM with UO-31 renal. In addition, the TGI in the experiment with ACHN renal, in the experiment on COLO 205 colon, with HCC-2998 colon, with K-562 leukemia, with M14 melanoma and in the experiment with MALME-3M melanoma was more than 25 µM each time. Also, the TGI in the experiment on MCF7 breast, in the experiment on OVCAR-4 ovarian, in the experiment on SF-268 CNS and in the experiment on UO-31 renal was more than 25 µM in each case.
Take `COc1cc(Cl)cc(-c2nn(-c3cccc(NC(=O)Nc4ccc(Cl)c(Cl)c4)c3)cc2-c2ccncc2)c1`: the GI50 in the experiment with ACHN renal is 3.23 µM; in the experiment with COLO 205 colon, 1.71 µM; in the experiment with HCC-2998 colon it was 3.16 µM; in the experiment with K-562 leukemia it was 1.96 µM; with M14 melanoma, 2.52 µM; with MALME-3M melanoma it was 2.06 µM. Moreover, the GI50 in the experiment on MCF7 breast is 2.56 µM; in the experiment with OVCAR-4 ovarian, 2.85 µM; with SF-268 CNS, 3.27 µM; with UO-31 renal, 1.89 µM. Besides, the TGI is more than 100 µM in the experiment with ACHN renal; 3.31 µM in the experiment with COLO 205 colon; 36.8 µM with HCC-2998 colon; more than 100 µM with K-562 leukemia; 10.9 µM in the experiment with M14 melanoma; 7.85 µM with MALME-3M melanoma. The TGI was 13.2 µM in the experiment with MCF7 breast, 53.8 µM in the experiment with OVCAR-4 ovarian, more than 100 µM in the experiment with SF-268 CNS and 18.2 µM with UO-31 renal.

Broadly, the GI50 is the concentration giving 50% growth inhibition. In general, TGI refers to the concentration at which net growth stops. The low end stands for greater sensitivity of the cells, the high end for lower sensitivity of the cells.
